Experiments:
UCB-MSCs [1] = test: Tuj1 immunochemical assay, direct conversion of UCB-MSCs into ciNSC5; type: cell-based, human; conditions: 30 μM, 5 days; for expression of Tuj1: UCB-MSC
Protocol: Immunochemical assay was performed to confirm whether UCB-MSCs were transdifferentiated into ciNSC5, Tuj1-positive neural progenitor cells, by the compounds of the present invention, YJ101, YJ102, and YJ103. Specifically, UCB-MSCs were dispensed at 2.1×10^4 cells/well in a 12-well plate containing an 18 mm cover glass (a DMSO control group was dispensed at 3.5×10^3 cells/well). […] The culture medium was removed, washed with PBS, and then fixed with 4% paraformaldehyde at room temperature for 10 minutes. After washed three times with PBS, the cells were permeabilized with PBS-T containing 0.5% Triton X-100 for 10 minutes, washed with PBS-T three times for 10 minutes each, and then blocked with a blocking solution (PBS-T containing 5% BSA and 5% goat serum) for 1 hour. Thereafter, the cells were treated with anti-Tuj1 antibody (Cat. 801201, BioLegend) diluted 1/5000 in a blocking solution and incubated at 4° C. overnight. The next day, the cells were washed 10 times for 10 minutes each with PBS-T, and then treated with anti-mouse IgG-FITC diluted 1/500 in a blocking solution, and incubated for 1 hour in dark conditions. Next, the cells were washed 10 times for 10 minutes each with PBS-T, mounted with a mounting solution containing DAPI, and then observed with a confocal microscope.

AD-MSC = test: Tuj1 immunochemical assay, AD-MSC; type: cell-based, human; conditions: 10, 20 or 30 μM, 5 days
Protocol: (§1) To determine whether transdifferentiation into ciNSC5, neural progenitor cells, occurred similarly even in MSCs of different origins when human UCB-MSCs were treated with YJ101, YJ102, or YJ103 for 5 days, the expression of neuronal markers in differentiated ciNSC5 was confirmed by immunochemical assay using MSCs from human adipose-derived mesenchymal stem cells (AD-MSCs), human bone marrow-derived mesenchymal stem cells ([…]) and human umbilical cord blood-derived mesenchymal stem cells (UCB-MSCs; Promo Cells). Specifically, AD-MSC (StemPro™ Human Adipose-Derived Stem Cell, Gibco, Passage #6) was incubated in a MesenPRO RS™ medium, BM-MSC (ATCC, Passage #6) was incubated in a Mesenchymal Stem Cell Basal Medium for Adipose, Umbilical and Bone Marrow-derived MSC (Cat. PCS-500-030, ATCC) medium, and UCB-MSC (Promo Cell, Passage #6) was incubated in a CellCor™ CD MSC (Cat. YSP001, Xell Therapeutics) medium, and then dispensed at 2.1×10^4 cells/well in a 12-well plate with an 18 mm cover glass (circular) (DMSO control group was dispensed at 3.5×10^3 cells/well). […] The culture medium was removed, washed with PBS, and then fixed with 4% paraformaldehyde at room temperature for 10 minutes. After washed three times with PBS, the cells were permeabilized with PBS-T containing 0.5% Triton X-100 for 10 minutes, washed with PBS-T three times for 10 minutes each, and then blocked with a blocking solution (PBS-T containing 5% BSA and 5% goat serum) for 1 hour. Thereafter, the cells were treated with anti-Tuj1 antibody (Cat. 801201, BioLegend) diluted 1/5000 in a blocking solution and incubated at 4° C. overnight. The next day, the cells were washed 10 times for 10 minutes each with PBS-T, and then treated with anti-mouse IgG-cy3 diluted 1/2000 in a blocking solution, and incubated for 1 hour in dark conditions. Next, the cells were washed 10 times for 10 minutes each with PBS-T, mounted with a mounting solution containing DAPI, and then observed with a confocal microscope.

BM-MSC = test: Tuj1 immunochemical assay, BM-MSC; type: cell-based, human; conditions: 10, 20 or 30 μM, 5 days
Protocol: as §1

UCB-MSC (Promo Cell) = test: Tuj1 immunochemical assay, UCB-MSC (Promo Cell); type: cell-based, human; conditions: 10, 20 or 30 μM, 5 days
Protocol: as §1

UCB-MSCs [2] = test: CellTiter-Glo proliferation assay; type: cell-based, human; conditions: 10, 20, or 40 μM; 3 or 5 days
Protocol: Thereafter, 100 μl of a CellTiter-Glo reagent prepared by mixing a CellTiter-Glo Buffer with a CellTiter-Glo substrate was added to each well of a 96-well plate, covered with a plate cover, and incubated at room temperature for 30 minutes.

CtBP1 [3] = molecular target: T1, CtBP1 (Homo sapiens, UniProt Q13363); test: DARTS assay, CtBP1; type: binding; parameters: expressed in transfected cells; host or cells: human UCB-MSC (Kang Stem Cell), lysate; conditions: for overexpressed CtBP1 (flag-CtBP1) protection from degradation by pronase (DARTS): FLAG-CtBP1 transfected UCB-MSC lysate, YJ101 (20 or M), YJ102 (20 or 30 μM), YJ103 (20 or 40 μM); for binding to CtBP1: human UCB-MSC
Protocol: To identify proteins binding to compounds of the present invention, YJ101 (Chemical Formula 1), YJ102 (Chemical Formula 2), and YJ103 (Chemical Formula 3), in human umbilical cord blood-derived mesenchymal stem cells (UCB-MSCs), DART assay was performed. Specifically, UCB-MSCs (Kang Stem Cell, Passage #6) were dispensed into a 100 mm culture dish and incubated in a KSB-3 medium (Cat. K3901, Kang Stem Cell) containing 10% FBS (Cat. 16000044), and then collected and washed with PBS. Thereafter, the cells were added with an IP50 lysis buffer [50 mM Tris-HCl (pH 7.4), 150 mM NaCl, 2 mM MgCl2, and 0.1% NP40], sonicated, and centrifuged at 13,000×g for 10 minutes at 4° C. to obtain the supernatant. The supernatant was added with 1/10 volume of 10×TNC buffer [500 mM Tris-HCl (pH 8.0), 500 mM NaCl, and 100 mM CaCl2)], and protein concentration was measured using a Bradford method. Thereafter, 9 μl of a cell lysate and 1 μl of YJ101 (20 or M), YJ102 (20 or 30 μM), or YJ103 (20 or 40 μM) were mixed in a microcentrifuge tube and incubated at room temperature for 1 hour. A control group was treated with 1 μl of DMSO. After incubation, 1 μl (1 mg/ml) of Pronase (Cat. 10 165 921 001, Roche) diluted to 1 mg/ml using a 1×TNC buffer was added to the microcentrifuge tube and incubated at 37° C. for 15 minutes. After incubation, ⅕ volume of a 5×SDS-PAGE loading buffer was added, heated at 100° C. for 5 minutes, and then SDS-PAGE and Coomassie blue staining were performed. In addition, UCB-MSCs were dispensed at 4×10^5 cells/ml in a 60 mm culture dish, and after 24 hours, 4 μg of FLAG-CtBP1 or FLAG-CtBP2 DNA was transfected using 4 μl of jetPRIME. After 48 hours, the cells were collected, and proteins were extracted and quantified using the same method as above. DARTS assay was performed with the cell lysate of CtBP1 and Y102 labeled with FLAG, and Western blot assay was performed with a flag antibody (Cat. F3165, Sigma).

human UCB-MSCs = test: Tuj1 immunochemical assay with CtBP inhibitors; type: cell-based
Protocol: To determine CtBP1-mediated ciNSC5 differentiation by YJ102 in human UCB-MSCs, a CTBP1 mechanism by treatment with NSC95397 or 4-methylthio-2-oxobutanoate (MTOB) was analyzed by immunochemical assay. Specifically, UCB-MSCs were dispensed at 2.1×10^4 cells/well in a 12-well plate containing an 18 mm cover glass (circular) (a DMSO control group was dispensed at 3.5×10^3 cells/well). […] The culture medium was removed, washed with PBS, and fixed with 4% paraformaldehyde at room temperature for 10 minutes. After washed three times with PBS, the cells were permeabilized with PBS-T containing 0.5% Triton X-100 for 10 minutes, washed with PBS-T three times for 10 minutes each, and then blocked with a blocking solution (PBS-T containing 5% BSA and 5% goat serum) for 1 hour. Thereafter, the cells were treated with anti-Tuj1 antibody (Cat. 801201, BioLegend) diluted 1/5000 in a blocking solution and incubated at 4° C. overnight. The next day, the cells were washed 10 times for 10 minutes each with PBS-T, and then treated with anti-mouse IgG-cy3 (Cat. 111-165-003, Jackson ImmunoResearch) diluted 1/2000 in a blocking solution, and incubated for 1 hour in dark conditions. Next, the cells were washed 10 times for 10 minutes each with PBS-T, mounted with a mounting solution containing DAPI, and then observed with a confocal microscope.

CtBP1 [4] = molecular target: T1, CtBP1; test: Immunoprecipitation, CtBP1 oligomerization in UCB-MSCs; type: cell-based; parameters: expressed in transfected cells; host or cells: human UCB-MSC; conditions: MTOB 300 μM
Protocol: To determine the effect of YJ102 on the regulation of oligomerization of C-terminal Binding Proteins (CtBPs) in human UCB-MSCs, immunoprecipitation analysis was performed. Specifically, UCB-MSCs were dispensed at 4×10^5 cells/ml in a 60 mm culture dish, and the next day, FLAG-CtBP1, HA-CtBP1, FLAG-CtBP2, and HA-CtBP1 were transfected into cells using 4 μl jetPRIME. Thereafter, the cells were treated with YJ102 (stock 30 mM in DMSO) and MTOB (stock 300 mM in DMSO) at 20 μM and 300 μM, respectively (Table 1). After 48 hours of transfection, proteins were extracted in the same manner as in Example 1-1. Protein G agarose slurry was washed with PBS and blocked with 1 ml of 1% BSA, washed with PBS, and added with 1 μg of anti-HA antibody diluted with 1.5 ml of PBS and incubated at 4° C. for 2 hours. Thereafter, the cells were centrifuged at 3,000×g for 2 minutes to remove the supernatant, washed with an IP150 buffer two times, added with 1 μg of the protein extracted above, and incubated at 4° C. overnight. After incubation, the cells were centrifuged at 3,000×g for 2 minutes to remove the supernatant, washed with PBS three times, added with 50 μl of 1 mg/ml HA peptide diluted with PBS, and incubated at room temperature for 10 minutes. […]

overexpressed CtBP1 (flag-CtBP1) protection from degradation by pronase (DARTS) (CtBP1 [3])	binding to CtBP1 (CtBP1 [3])	YJ102-induced oligomerization of CtBP1 (CtBP1 [4])	Structure (SMILES)	direct conversion from UCB-MSCs to ciNSC5 (UCB-MSCs [1])	expression of Tuj1 (UCB-MSCs [1])	expression of Tuj1 (AD-MSC)	expression of Tuj1 (BM-MSC)	expression of Tuj1 (UCB-MSC (Promo Cell))	cell proliferation (CellTiter-Glo) (UCB-MSCs [2])	expression of Tuj1 in YJ102-treated ciNSC5 (human UCB-MSCs; 300 μM MTOB with 30 μM YJ102, 5 days)	expression of Tuj1 in YJ102-treated ciNSC5 (human UCB-MSCs; 10 μM NSC95397 with 30 μM YJ102, 5 days)
protected	bound to CtBP1		CCc1ccc(N(C(=O)COC(C)=O)c2nc3cc(Cl)ccc3o2)cc1 [YJ101]	induced direct conversion	increased	increased	increased	increased	reduced cell proliferation in a concentration-dependent manner		
protected	bound to CtBP1		CCc1ccc(N(C(=O)CCC(=O)OC)c2nc3cc(Cl)ccc3o2)cc1 [YJ103]	induced direct conversion	increased	increased	increased	increased	reduced cell proliferation in a concentration-dependent manner		
		inhibited	CSCCC(=O)C(=O)O [MTOB, 4-methylthio-2-oxobutanoate, reference compound]							reduced	
			O=C1C(SCCO)=C(SCCO)C(=O)c2ccccc21 [NSC95397]								reduced
